According to patent US11413278B2, “Compounds and methods for promoting stress resistance” (priority 2015, dated 2022):
Like-named read-outs stand apart in the source and are kept apart here.

Assays:
[1] = test system: phosphorylated γH2A.X and TP53BP1; experiment: DNA damage marker analysis (immuno-staining); settings: for activity at 10 µM: Homo sapiens, WI-38, 24 h
Procedure, shortened: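 WI-38 cells were cultured 24 h, then treated with compounds for 24 h; H2O2 (700 μM, 3 h) and doxorubicin (300 nM, 24 h) served as DNA-damage controls. After fixation, cells were immunostained for phospho-γH2A.X (Ser-139) and phospho-TP53BP1 (Ser-1778), counterstained with DAPI, and imaged by automated high-content microscopy.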

WI-38 cells [2] = experiment: MMS resistance assay; assay type: cell-based, human; settings: for fold induction at 10 µM: Homo sapiens, 12 h, normalized ATP measurement
Procedure, shortened: (§1)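 WI-38 cells were given compounds at five final concentrations (0.25–20 μM) in triplicate, followed by cadmium or MMS for 12 h. For MMS, medium was switched from OptiMEM+10% FBS to serum-free DMEM+2% BSA when compounds were added, 24 h before stressor. Two independent assays were run, analysed by global variance t-test.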

human PARP1 = biological target: T1, human PARP1 (Homo sapiens, UniProt P09874); experiment: PARP inhibitor assay (HT Fluorescent Homogeneous PARP Inhibition Assay Kit); assay type: biochemical; settings: for L = PARP inhibition: score
T1 construct: purchased Trevigen
T1 sequence (P09874 whole entry): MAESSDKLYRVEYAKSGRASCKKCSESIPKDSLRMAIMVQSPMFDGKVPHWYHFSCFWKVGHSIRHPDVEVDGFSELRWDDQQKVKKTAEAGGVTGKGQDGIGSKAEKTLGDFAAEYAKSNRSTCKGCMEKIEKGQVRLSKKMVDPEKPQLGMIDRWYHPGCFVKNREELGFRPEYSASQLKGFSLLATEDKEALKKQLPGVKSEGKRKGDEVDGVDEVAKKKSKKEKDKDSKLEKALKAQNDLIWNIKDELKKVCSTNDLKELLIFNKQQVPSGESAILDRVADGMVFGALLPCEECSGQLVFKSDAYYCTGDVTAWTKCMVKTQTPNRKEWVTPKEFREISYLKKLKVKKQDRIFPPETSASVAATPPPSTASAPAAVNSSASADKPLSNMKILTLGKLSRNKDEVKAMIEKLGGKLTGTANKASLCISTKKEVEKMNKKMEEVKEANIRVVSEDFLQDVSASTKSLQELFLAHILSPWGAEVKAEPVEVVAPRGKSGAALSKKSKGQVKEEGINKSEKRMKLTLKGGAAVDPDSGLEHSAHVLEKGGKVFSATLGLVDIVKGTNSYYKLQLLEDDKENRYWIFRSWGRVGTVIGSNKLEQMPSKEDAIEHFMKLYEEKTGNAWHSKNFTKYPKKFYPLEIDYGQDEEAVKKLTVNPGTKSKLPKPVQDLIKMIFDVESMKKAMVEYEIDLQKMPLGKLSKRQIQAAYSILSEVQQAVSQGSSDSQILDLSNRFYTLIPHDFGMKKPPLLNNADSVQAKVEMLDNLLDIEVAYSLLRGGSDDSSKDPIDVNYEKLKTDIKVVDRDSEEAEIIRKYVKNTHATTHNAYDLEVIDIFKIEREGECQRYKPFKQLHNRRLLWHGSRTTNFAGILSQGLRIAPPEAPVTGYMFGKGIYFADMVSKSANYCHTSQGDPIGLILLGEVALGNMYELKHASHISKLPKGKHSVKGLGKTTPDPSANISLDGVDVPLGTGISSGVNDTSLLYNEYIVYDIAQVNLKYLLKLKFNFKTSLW
Procedure, shortened: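 Human PARP1 with NAD and activated DNA, compounds at 10 μM final, 30 min at room temperature in dark. Resazurin/diaphorase cycling mix then added for 1 hr in dark before stop buffer; fluorescent homogeneous kit read-out.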

WI-38 cells [3] = experiment: CdCl2 (cadmium) resistance assay; assay type: cell-based, human; settings: for fold induction at 10 µM: Homo sapiens, 12 h, normalized ATP measurement; for Assay 4: H2O2- & Cd-resistant / Assay 2: Cadmium-resistant: YES/NO; for Assay 2: Cadmium-resistant: * indicates partial
Procedure, shortened: as §1

C. elegans = assay type: in vivo, Caenorhabditis elegans
Procedure, shortened: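 Worms treated in liquid with compounds in 96-well plates (4 wells each, FUdR to block progeny, 0.2% DMSO controls); H2O2 at 500 μM final added on day 4 of adulthood and viability scored daily.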

WI-38 cells [4] = settings: for No H2O2 stress treatment, at 10 uM (fold change): normalized ATP measurement; for Assay 1: H2O2-resistant: YES/NO, if NO, possibly due to repeated freezing/thawing of stocks
[5] = read-out: Experiment 1, H2A.X-P DNA damage foci staining (no H2O2 stress treatment), at 10 uM
[6] = read-out: Experiment 2, H2A.X-P DNA damage foci staining (no H2O2 stress treatment), at 10 uM
[7] = read-out: Experiment 2, H2A.X-P DNA damage foci staining (under H2O2 stress treatment), at 10 uM
[8] = read-out: Experiment 2, TP53BP1-P DNA damage foci staining (no H2O2 stress treatment), at 10 uM
[9] = read-out: Experiment 2, TP53BP1-P DNA damage foci staining (under H2O2 stress treatment), at 10 uM
[10] = Exp. 1, WI-38 cells, read-out: Exp. 1, under MMS stress treatment, at 10 uM (fold change)
[11] = Exp. 2, WI-38 cells, read-out: Exp. 2, under MMS stress treatment, at 10 uM (fold change)
[12] = score in summary of 38 core set hits
[13] = Exp. 1, WI-38 cells, read-out: Exp. 1, under Cd2Cl2 stress treatment, at 10 uM (fold change)
[14] = Exp. 2, WI-38 cells, read-out: Exp. 2, under Cd2Cl2 stress treatment, at 10 uM (fold change)
[15] = WI-38 cells, 10 μM, (*) = compromised ability to protect cells from H2O2, could be due to stability issue
[16] = asterisks indicate the loss of the ability to protect cells from H2O2 over time
[17] = derived from dose response curves, 0.6-20 uM, H2O2-resistance of WI-38 cells
[18] = read-out: Est. ED50, dose response 0.6-20 μM, H2O2-resistance

SMILES: O=C1NCCCc2cc(Cl)sc21 [O1]
- activity at 10 µM [1, 5]: 102%
- activity at 10 µM [1, 6]: 104%
- activity at 10 µM [1, 7]: 216%
- activity at 10 µM [1, 8]: 143%
- activity at 10 µM [1, 9]: 336%
- P = Potential DNA-damaging ([1]; human, 24 h): 0
- R = Potential DNA damaging ([1]; human, 24 h): 0
- fold induction at 10 µM (WI-38 cells [2]; [10]): 1.2
- fold induction at 10 µM (WI-38 cells [2]; [11]): 4.96
- B = MMS resistant (WI-38 cells [2]; [12]): 0
- B = MMS resistant (WI-38 cells [2]; summary score): 0
- D = Triple resistant (WI-38 cells [2]; summary score): 0
- Inhibition of PARP1 (human PARP1; 10 μM, in vitro): inhibitors of PARP1
- L = PARP inhibition (human PARP1): 1
- CdCl2-resistant (WI-38 cells [3]): YES
- H2O2- & CdCl2-resistant (WI-38 cells [3]): YES
- fold induction at 10 µM (WI-38 cells [3]; [13]): 1.84
- fold induction at 10 µM (WI-38 cells [3]; [14]): 1.86
- CdCl2-resistant (WI-38 cells [3]; WI-38 cells, 10 μM): YES
- H2O2- & CdCl2-resistant (WI-38 cells [3]; WI-38 cells, 10 μM, both stressors): YES
- Assay 4: H2O2- & Cd-resistant (WI-38 cells [3]): YES
- Assay 2: Cadmium-resistant (WI-38 cells [3]): YES
- A = Cadmium resistant (WI-38 cells [3]; [12]): 1
- A = Cadmium resistant (WI-38 cells [3]; summary score): 1
- C = H2O2- & Cd-resistant (WI-38 cells [3]; summary score): 1
- L = H2O2-resistance in worms (C. elegans; in vivo): 0
- N = H2O2-resistance in woms (C. elegans; in vivo): 0
- H2O2-resistant (WI-38 cells [4]; [15]): YES
- No H2O2 stress treatment, at 10 uM (fold change) (WI-38 cells [4]; WI-38 cells): 0.92 fold change
- Assay 1: H2O2-resistant (WI-38 cells [4]): YES
- H2O2-resistant (WI-38 cells [4]; [16]): YES
- EC50 (WI-38 cells [4]; [17]): 13.2 µM
- EC50 (WI-38 cells [4]; [18]): 13.2 µM

SMILES: COc1ccc(C(=O)/C=C/c2cccc(Cl)c2)c(OC)c1 [Gr-4C]
- activity at 10 µM [1, 5]: 108%
- activity at 10 µM [1, 6]: 135%
- activity at 10 µM [1, 7]: 150%
- activity at 10 µM [1, 8]: 179%
- activity at 10 µM [1, 9]: 444%
- R = Potential DNA damaging ([1]; negative point, cultured human cells): 0
- P = Potential DNA-damaging ([1]; summary score): 0
- fold induction at 10 µM (WI-38 cells [2]; [10]): 1.24
- fold induction at 10 µM (WI-38 cells [2]; [11]): 1.61
- Assay 3: MMS-resistant (WI-38 cells [2]; YES/NO, * indicates partial): YES
- Assay 5: Triple resistant (WI-38 cells [2]; YES/NO, H2O2, cadmium and MMS): YES
- B = MMS resistant (WI-38 cells [2]; [12]): 0
- B = MMS resistant (WI-38 cells [2]; summary score): 1
- D = Triple resistant (WI-38 cells [2]; summary score): 2
- L = PARP inhibition (human PARP1): 0
- fold induction at 10 µM (WI-38 cells [3]; [13]): 1.07
- fold induction at 10 µM (WI-38 cells [3]; [14]): 1.19
- Assay 4: H2O2- & Cd-resistant (WI-38 cells [3]): YES
- Assay 2: Cadmium-resistant (WI-38 cells [3]): YES
- A = Cadmium resistant (WI-38 cells [3]; [12]): 0
- A = Cadmium resistant (WI-38 cells [3]; summary score): 1
- C = H2O2- & Cd-resistant (WI-38 cells [3]; summary score): 1
- N = H2O2-resistance in woms (C. elegans; score): 0
- L = H2O2-resistance in worms (C. elegans; summary score): 0
- H2O2-resistant (WI-38 cells [4]; [15]): YES
- No H2O2 stress treatment, at 10 uM (fold change) (WI-38 cells [4]; WI-38 cells): 1.08 fold change
- Assay 1: H2O2-resistant (WI-38 cells [4]): YES
- H2O2-resistant (WI-38 cells [4]; [16]): YES
- EC50 (WI-38 cells [4]; [17]): 8.4 µM
- EC50 (WI-38 cells [4]; [18]): 6.45 µM
